# In patent US9815865B2, “Preparations of hydrophobic therapeutic agents, methods of manufacture and use thereof” (Aciex Therapeutics, Inc., priority 2013, dated 2017):
# Read-outs that look alike come from different tables or passages of the source.
# What was measured:
# [1] = In-vitro dissolution study in vitreous humor; type: physicochemical, Bovine; details: crystals at 10 μm, 37° C., versus micronized TA at 10μ (FIG. 50)
# Experimental: The rate of dissolution of ACX-TA crystals versus micronized TA in vitreous humor was studied. Bovine eyes were obtained fresh, and the vitreous humor was extracted. The vitreous humor was stored at 5° C., prior to use. 1 ml of crystals of various sizes (1.78 μm, 4.7 μm, 10.18 μm, or 15 μm) were incubated in a shaking incubator at 37° C. Crystals were prepared as described in Table 37 or 38. The crystals of 1.78 μm were prepared using citrate buffer and were of Form B, and the crystals of 4.7 μm, 10.18 μm, and 15 μm were prepared using phosphate buffer and were of Form C.
# Tap density = type: physicochemical
# [2] = Saturated solubility and rate of dissolution of FP
# Experimental: The saturated solubility of FP was measured by HPLC for the nanocrystals produced by the batch process of the invention, FP homogenized and FP stock material.
# [3] = Stability of FP nanocrystal suspensions (assay, impurities, pH, particle size); type: physicochemical
# Source text: This phase III composition was also stable chemically for more than 4 weeks at 40 degrees C. This combination of polymers also maintains the particle size at its original size for 5-14 days.
# The stability of the nanocrystals is controlled by the pH of phase III, which is formed by the combination of phase I and phase II. A 20 gram batch of nanocrystals were produced at pH 5.5 and placed on stability at 25 degrees C. Another 20 gram batch was produced at pH 7.5 and stability determined at 25 degrees C. for 30 days. Unexpectedly, the particles at 7.5 grew rapidly to an average particle size greater than 1 micron. This phenomenon was verified for batches at the 50 gram scale.
# It was also observed that the final compositions or formulations of FP were stable across all concentrations tested, i.e., 0.005%, 0.01%, 0.1%, and 10%. Samples were placed in 4° C., 25° C., 40° C. stability chambers. Stability time-points: T=0d, T=1 week, T=2 weeks, T=4 weeks.
# Nanocrystals prepared by the batch process were tested on stability, to assess if the particle size distribution remained with a narrow range of 400-600 nm. […]
# Samples were measured for particle size, pH, osmolality and assay. […]
# [4] = Thermal analysis (DSC/TGA); type: physicochemical
# Experimental: The table below summarizes the testing conditions and parameters for the simultaneous thermal analysis tests. The samples were (a) Fluticasone Propionate nanocrystals, and (b) Fluticasone Propionate, stock material. The specimens were tested under a heating rate of 10° C./min starting at 30° C. until reaching a final temperature of 350° C. This process was repeated for each specimen. The experiments were performed at EBATCO, LLC, Eden Prairie, Minn.
# Thermal properties of the TA particles from Example 9 were investigated using a SHIMADZU® DSC-60 and TGA-50.
# Approximately 10 mg of sample was analyzed in an open aluminum pan, and heated at scanning rate of 10° C.·min^−1 from room temperature to 320° C. […] Peak of the heat of melting is at 289.42° C., with ΔHm=83.50 J/g. In comparison, peak of the heat of melting for the nanocrystals produced by the process described in Example 9 is at 275.78° C., with ΔHm=108.45 J/g (FIG. 34).
# [5] = oral dosing of labeled and unlabeled conventional fluticasone propionate; cited from earlier work
# [6] = cited from earlier work
# [7] = Solubility of fluticasone propionate in FDA-approved solvents and excipients (RP-HPLC at 239 nm); type: physicochemical
# Experimental: The specific composition of Phase I depends upon the solubility of the drug in this phase. […] The suspension was centrifuged at 10,000 rpm and the supernatant analyzed by RP-HPLC at 239 nm.
# [8] = Solubility of triamcinolone acetonide in non-aqueous solvents; type: physicochemical; details: preliminary estimation; for solubility at 15 min: organic solvent or mixture, thermodynamic from solid
# Experimental: Triamcinolone Acetonide (TA), stock was used as received from the manufacturer. Solubility of Triamcinolone Acetonide (TA) was measured in propylene glycol, polypropylene glycol, TWEEN® 20 (polysorbate 20), TWEEN 80 (polysorbate 80), PEG 400.
# Initially, 5 mg of the TA was added to 10 g of solvent; the mixture was vortexed for 5 min, and sonicated for 10 min in a water bath. 1-5 mg of TA was added when the initial amount dissolved in the solvent completely—clear solution of TA in solvent. The process was continued until saturation solubility was reached. The solvent that provided the highest solubility was chosen for further development as Phase I.
# The solubility of TA in propylene glycol, polypropylene glycol, PEG 400, TWEEN® 20 (polysorbate 20) and TWEEN® 80 (polysorbate 80) was evaluated. Initially, 5 mg of TA was added to these solvents and the suspension was vortexed and sonicated for 15 min in a water bath at 37° C. When the API (i.e., TA) dissolved, 1 mg of drug was added to the vial. This process was continued until a preliminary estimation of the drug in all solvents was achieved.
smiles,measurement,setting,value
CC1(C)O[C@@H]2C[C@H]3[C@@H]4CCC5=CC(=O)C=C[C@]5(C)[C@@]4(F)[C@@H](O)C[C@]3(C)[C@]2(C(=O)CO)O1 [ACX-TA crystals],rate of dissolution in vitreous humor,[1],much slower rate of dissolution than micronized TA
same,tap density,Tap density,0.5677 g/mL
CCC(=O)O[C@]1(C(=O)SCF)[C@H](C)C[C@H]2[C@@H]3C[C@H](F)C4=CC(=O)C=C[C@]4(C)[C@@]3(F)[C@@H](O)C[C@@]21C [FP homogenized],saturated solubility,[2],40 to 45 µg/mL
CCC(=O)O[C@]1(C(=O)SCF)[C@H](C)C[C@H]2[C@@H]3C[C@H](F)C4=CC(=O)C=C[C@]4(C)[C@@]3(F)[C@@H](O)C[C@@]21C [FP stock material],time to reach saturated solubility,[2],≤ 2 weeks
same,tap density,Tap density; listed as fluticasone propionate stock,0.3278 g/mL
CCC(=O)O[C@]1(C(=O)SCF)[C@H](C)C[C@H]2[C@@H]3C[C@H](F)C4=CC(=O)C=C[C@]4(C)[C@@]3(F)[C@@H](O)C[C@@]21C [Form A],agglomeration over time,[3]; after purification (FIG. 10),did not display any agglomeration over time
same,average particle size on stability,"[3]; phase III pH 7.5, 25 degrees C. for 30 days",greater than 1 micron
same,dissolution rate,[2]; in water at room temperature,about 1 μg/g/day
same,time to reach saturated solubility,[2]; incubation in an aqueous medium,6 weeks
same,tap density,Tap density,0.5786 g/mL
same,tap density,Tap density; listed as dried fluticasone propionate crystals prepared by the batch process,0.5786 g/mL
"CC1(C)O[C@@H]2C[C@H]3[C@@H]4CCC5=CC(=O)C=C[C@]5(C)[C@@]4(F)[C@@H](O)C[C@]3(C)[C@]2(C(=O)CO)O1 [Stock TA, as purchased]",Tm (Melting Point),[4],289.61 °C
CC1(C)O[C@@H]2C[C@H]3[C@@H]4CCC5=CC(=O)C=C[C@]5(C)[C@@]4(F)[C@@H](O)C[C@]3(C)[C@]2(C(=O)CO)O1 [TA stock material],tap density,Tap density,0.4211 g/mL
"CCC(=O)O[C@]1(C(=O)SCF)[C@H](C)C[C@H]2[C@@H]3C[C@H](F)C4=CC(=O)C=C[C@]4(C)[C@@]3(F)[C@@H](O)C[C@@]21C [fluticasone propionate, (6α,11β,16α,17α)-6,9,-difluoro-11-hydroxy-16-methyl-3-oxo-17-(1-oxopropoxy) androsta-1,4-diene-17-carbothioic acid, S-fluoromethyl ester]",oral systemic bioavailability,[5],< 1%
same,solubility (descriptive),[6]; in dimethyl sulfoxide and dimethyl-formamide,freely soluble
same,solubility (descriptive),[6]; in methanol and 95% ethanol,slightly soluble
same,solubility,"[7]; Acetone, 25 °C, organic solvent or mixture, thermodynamic from solid, in Acetone, overnight at 25 degrees centigrade, read-out: Solubility",63000 µg/mL
same,solubility,"[7]; Castor oil, 25 °C, oil or lipid, thermodynamic from solid, in Castor oil, overnight at 25 degrees centigrade, read-out: Solubility",18 µg/mL
same,solubility,"[7]; Corn oil, 25 °C, oil or lipid, thermodynamic from solid, in Corn oil, overnight at 25 degrees centigrade, read-out: Solubility",6.9 µg/mL
same,solubility,"[7]; Ethanol, 25 °C, organic solvent or mixture, thermodynamic from solid, in Ethanol, equilibrated overnight at 25 degrees centigrade, read-out: Solubility",4450 µg/mL
same,solubility,"[7]; Glycerin, 25 °C, organic solvent or mixture, thermodynamic from solid, in Glycerin, overnight at 25 degrees centigrade, read-out: Solubility",144 µg/mL
same,solubility,"[7]; Methylene Chloride, 25 °C, organic solvent or mixture, thermodynamic from solid, in Methylene Chloride, overnight at 25 degrees centigrade, read-out: Solubility",9250 µg/mL
same,solubility,"[7]; PEG 200, 25 °C, organic solvent or mixture, thermodynamic from solid, in PEG 200, overnight at 25 degrees centigrade, read-out: Solubility",4210 µg/mL
same,solubility,"[7]; PEG 400, 25 °C, organic solvent or mixture, thermodynamic from solid, in PEG 400, overnight at 25 degrees centigrade, read-out: Solubility",4330 µg/mL
same,solubility,"[7]; PHOSAL 50 PG, 25 °C, oil or lipid, thermodynamic from solid, in PHOSAL 50 PG, overnight at 25 degrees centigrade, read-out: Solubility",426 µg/mL
same,solubility,"[7]; PPG, 25 °C, organic solvent or mixture, thermodynamic from solid, in PPG, overnight at 25 degrees centigrade, read-out: Solubility",2230 µg/mL
same,solubility,"[7]; Polysorbate 20, 25 °C, aqueous with cosolvent or surfactant or cyclodextrin, thermodynamic from solid, in Polysorbate 20, overnight at 25 degrees centigrade, read-out: Solubility",7060 µg/mL
same,solubility,"[7]; Polysorbate 60, 25 °C, aqueous with cosolvent or surfactant or cyclodextrin, thermodynamic from solid, in Polysorbate 60, overnight at 25 degrees centigrade, read-out: Solubility",4910 µg/mL
same,solubility,"[7]; Polysorbate 80, 25 °C, aqueous with cosolvent or surfactant or cyclodextrin, thermodynamic from solid, in Polysorbate 80, overnight at 25 degrees centigrade, read-out: Solubility",4660 µg/mL
same,solubility,"[7]; Propylene glycol, 25 °C, organic solvent or mixture, thermodynamic from solid, in Propylene glycol, overnight at 25 degrees centigrade, read-out: Solubility",764 µg/mL
same,solubility,"[7]; Span 20, 25 °C, aqueous with cosolvent or surfactant or cyclodextrin, thermodynamic from solid, in Span 20, overnight at 25 degrees centigrade, read-out: Solubility",46.9 µg/mL
same,solubility,"[7]; Span 80, 25 °C, aqueous with cosolvent or surfactant or cyclodextrin, thermodynamic from solid, in Span 80, overnight at 25 degrees centigrade, read-out: Solubility",52.1 µg/mL
same,solubility,"[7]; in Dextrose 5%, overnight at 25 degrees centigrade",5.3 µg/mL
same,solubility,"[7]; in PHOSAL 50 PG, overnight at 25 degrees centigrade",660.1 µg/mL
same,solubility,"[7]; in PHOSAL 53 MCT, overnight at 25 degrees centigrade",400 µg/mL
same,solubility,"[7]; in n-octanol, overnight at 25 degrees centigrade",87.3 µg/mL
same,solubility,"[7]; oleic acid, 25 °C, oil or lipid, thermodynamic from solid, in oleic acid, overnight at 25 degrees centigrade, read-out: Solubility",13.6 µg/mL
same,solubility,"[7]; phosphate buffer, 25 °C, pH 7, aqueous buffer, thermodynamic from solid, in Phos buff pH = 7, overnight at 25 degrees centigrade, read-out: Solubility",9.5 µg/mL
same,solubility,"[7]; water, 25 °C, water, thermodynamic from solid, in water, overnight at 25 degrees centigrade, read-out: Solubility",0.14 µg/mL
"CC1(C)O[C@@H]2C[C@H]3[C@@H]4CCC5=CC(=O)C=C[C@]5(C)[C@@]4(F)[C@@H](O)C[C@]3(C)[C@]2(C(=O)CO)O1 [triamcinolone acetonide, (4aS,4bR,5S,6aS,6bS,9aR,10aS,10bS)-4b-fluoro-6b-glycoloyl-5-hydroxy-4a,6a,8,8-tetramethyl-4a,4b,5,6,6a,6b,9a,10,10a,10b,11,12-dodecahydro-2H-naphtho[2′,1′:4,5]indeno[1,2-d][1,3] dioxol-2-one]",solubility,"[8]; in PEG 400, 37° C.",7000 µg/mL
same,solubility,"[8]; in polypropylene glycol, 37° C.",8000 µg/mL
same,solubility at 15 min,"[8]; in Propylene glycol, sonicated in water bath at 37° C.",14000 µg/mL
same,solubility at 15 min,"[8]; in TWEEN 20 (polysorbate 20), 37° C.",5500 µg/mL
same,solubility at 15 min,"[8]; in TWEEN 80 (polysorbate 80), 37° C.",4000 µg/mL
same,water solubility,[6]; at 28° C.,17.5 µg/mL
same,solubility (descriptive),[6]; in water,practically insoluble
